How the values were obtained:
influenza B virus = tested on: influenza B virus; set-up: species or system BALB/c mice; conditions: mouse, in vivo
influenza A virus = tested on: influenza A virus; set-up: species or system BALB/c mice; conditions: mouse, in vivo

In the case of CCOC(=O)C1=C[C@@H](OC(CC)CC)[C@H](NC(C)=O)[C@@H](N)C1 [Tamiflu, oseltamivir phosphate], the clinical symptoms (influenza B virus) is reported as “significant weight loss, cough, deem and messy hairs, decreased activity”, the survival rate (influenza B virus) is reported as 100% and the “death rate (FIG. 4a)” value (influenza A virus) is reported as 33%.
